Experimental data from PubChem BioAssay (NCI).
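How tested: cells in 96-well plates exposed to compound for 48 hours at five concentrations. GI50 = concentration required for 50% inhibition of growth. TGI marks complete inhibition of growth.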

How the values were obtained:
Assay in all cases: growth of human tumour cells (NCI), 48 h
COLO 205 colon = test system: COLO 205 colon
SK-MEL-28 melanoma = test system: SK-MEL-28 melanoma
UO-31 renal = test system: UO-31 renal
OVCAR-3 ovarian = test system: OVCAR-3 ovarian
SK-MEL-5 melanoma = test system: SK-MEL-5 melanoma
HT29 colon = test system: HT29 colon
HCC-2998 colon = test system: HCC-2998 colon
MCF7 breast = test system: MCF7 breast
MDA-MB-231 breast = test system: MDA-MB-231 breast
UACC-257 melanoma = test system: UACC-257 melanoma
NCI-H522 lung = test system: NCI-H522 lung
SR leukemia = test system: SR leukemia
M14 melanoma = test system: M14 melanoma
SNB-19 CNS = test system: SNB-19 CNS
SF-539 CNS = test system: SF-539 CNS
RXF 393 renal = test system: RXF 393 renal
SNB-75 CNS = test system: SNB-75 CNS
MOLT-4 leukemia = test system: MOLT-4 leukemia
PC-3 prostate = test system: PC-3 prostate
ACHN renal = test system: ACHN renal
DU-145 prostate = test system: DU-145 prostate
EKVX NSCLC = test system: EKVX NSCLC
HCT-116 colon = test system: HCT-116 colon
CCRF-CEM leukemia = test system: CCRF-CEM leukemia
A498 renal = test system: A498 renal
KM12 colon = test system: KM12 colon
TK-10 renal = test system: TK-10 renal
CAKI-1 renal = test system: CAKI-1 renal
SF-268 CNS = test system: SF-268 CNS

Structure (SMILES): NS(=O)(=O)c1ccc(-n2ncc3c(Nc4ccccc4)ncnc32)cc1
- GI50 (COLO 205 colon): 21.1 µM
- TGI (COLO 205 colon): > 100 µM
- GI50 (SK-MEL-28 melanoma): 31.6 µM
- TGI (SK-MEL-28 melanoma): > 100 µM
- GI50 (UO-31 renal): 23.9 µM
- TGI (UO-31 renal): > 100 µM
- GI50 (OVCAR-3 ovarian): 38.2 µM
- TGI (OVCAR-3 ovarian): > 100 µM
- GI50 (SK-MEL-5 melanoma): 24.4 µM
- TGI (SK-MEL-5 melanoma): > 100 µM
- GI50 (HT29 colon): 3.33 µM
- TGI (HT29 colon): 15.7 µM
- GI50 (HCC-2998 colon): 16.6 µM
- TGI (HCC-2998 colon): 57.7 µM
- GI50 (MCF7 breast): 49.2 µM
- TGI (MCF7 breast): > 100 µM
- GI50 (MDA-MB-231 breast): 15 µM
- TGI (MDA-MB-231 breast): 87.1 µM
- GI50 (UACC-257 melanoma): 39.4 µM
- TGI (UACC-257 melanoma): > 100 µM
- GI50 (NCI-H522 lung): 51.1 µM
- TGI (NCI-H522 lung): > 100 µM
- GI50 (SR leukemia): 29.6 µM
- TGI (SR leukemia): > 100 µM
- GI50 (M14 melanoma): 32.8 µM
- TGI (M14 melanoma): > 100 µM
- GI50 (SNB-19 CNS): > 100 µM
- TGI (SNB-19 CNS): > 100 µM
- GI50 (SF-539 CNS): 36.2 µM
- TGI (SF-539 CNS): > 100 µM
- GI50 (RXF 393 renal): 29.6 µM
- TGI (RXF 393 renal): > 100 µM
- GI50 (SNB-75 CNS): 33.5 µM
- TGI (SNB-75 CNS): > 100 µM
- GI50 (MOLT-4 leukemia): 14.5 µM
- TGI (MOLT-4 leukemia): 61.4 µM
- GI50 (PC-3 prostate): 35.1 µM
- TGI (PC-3 prostate): > 100 µM
- GI50 (ACHN renal): 38.5 µM
- TGI (ACHN renal): > 100 µM
- GI50 (DU-145 prostate): 35.6 µM
- TGI (DU-145 prostate): > 100 µM
- GI50 (EKVX NSCLC): 41.4 µM
- TGI (EKVX NSCLC): > 100 µM
- GI50 (HCT-116 colon): 27.4 µM
- TGI (HCT-116 colon): > 100 µM
- GI50 (CCRF-CEM leukemia): 17.7 µM
- TGI (CCRF-CEM leukemia): 92.5 µM
- GI50 (A498 renal): 24.3 µM
- TGI (A498 renal): 92.7 µM
- GI50 (KM12 colon): 9.63 µM
- TGI (KM12 colon): 46.7 µM
- GI50 (TK-10 renal): 19.1 µM
- TGI (TK-10 renal): > 100 µM
- GI50 (CAKI-1 renal): 23.7 µM
- TGI (CAKI-1 renal): > 100 µM
- GI50 (SF-268 CNS): 43.1 µM
